In the assay the test system is Ehrlich Ascites Tumor. As to the kind of experiment: Standard test with Ehrlich ascites tumor in ICR mice (antitumor activity). Type of assay: in vivo, ICR-Mäusen. Particulars: Dose 6 mg Pt-Komplex pro kg, intraperitoneal on day 1 and day 6; Cure = animals that survived longer than 60 days; two groups (20 mice) for the control. The source says: Zur Ermittlung der antikarzinogenen Aktivität der erfindungsgemäßen Platinkomplexverbindungen wurde der Standardtest mit dem Ehrlich Ascites Tumor an ICR-Mäusen angewendet. […] Die Tumorzellen sowie die Platinkomplexverbindungen wurden am Tag Null bzw. am 1. und 6. Tag intraperitonal injiziert. Die Resultate wurden in der nachstehenden Tabelle II zusammengestellt.
Der Terminus "Cure" wurde vom National Cancer Institute, USA, übernommen und bedeutet, wieviele Tiere länger als 60 Tage überlebt haben. Aus den Resultaten geht deutlich hervor, daß die erfindungsgemäßen Platinkomplexverbindungen gegenüber den bekannten Antitumormitteln der Vergleichsbeispiele 1 und 7 eine mindestens gleich gute, meist sogar deutlich bessere Antitumorwirkung zeigen.

We go through one compound from patent publication EP0144809A2, “Complex platinum compounds of substituted 5,8-dihydroxy-1,4 naphtoquinones, process for their preparation and their use” (NATEC Institut für naturwissenschaftlich- technische …, priority 1983, dated 1985).

Consider `N.N.[Cl][Pt][Cl]` [Positive Kontrolle, cis-Dichloro-diamino-platin(II)], for which the “Anzahl der "Cures" pro Tiergruppe” value is reported as 4.
